Results: patent US20100210649A1, “PYRIDAZINONES AND FURAN-CONTAINING COMPOUNDS” (Sloan-Kettering Institute for Cancer Research, priority 2006, published 2010)
Read-outs that look alike come from different tables or passages of the source.

Experiments:
Assay type in all cases: cell-based, human
[1] = system: H3255; assay: Non Small Cell Lung Cancer proliferation assay (Alamar Blue reduction), H3255; conditions: primary screening, 10 μM compound in 1% DMSO (v/v); for inhibition at 10 µM: Homo sapiens, NCI-H3255
Experimental: (§1) These cells have a doubling time of 1-2 days. All cell types are adherent and grow in colonies. The cells should be kept at a density between 50,000 cells/mL -500,000 cells/mL to provide for optimum growth and adequate nutrition. The cell line should be maintained at 37° C. in a humidified atmosphere with 5% CO2 in a sterile cell culture incubator.
(§2) Non Small Cell Lung Cancer Proliferation Assay.
(§3) High Controls for this assay are made by treating Non Small Cell Lung Cancer cells with 5 ul of 10% DMSO. [Final concentration in this assay is 1% DMSO].
(§4) Important Note: All compounds for testing in this assay should be done at the final concentration of 1% DMSO.
(§5) After addition, the cells are placed in cell culture incubator at 37° C. for 48 hours for complete treatment.
(§6) After drug treatment, cytotoxicity is measured by Alamar Blue reduction.
(§7) The cells are incubated for 48 hours at 37° C. to complete the Alamar Blue reduction.
(§8) The final step in the assay is to measure the amount of Alamar Blue reduction. […] The Alamar Blue fluorescence is measured at an excitation of 530 nm and emission of 590 nm.
(§9) For the NSCLC project, the cell based assay was screened against a small molecule library of approximately 200,000 compounds. The compound library is stored in our automated robotic freezer (Biophile) at −20° C. in 100% DMSO. Compound freeze and thaw cycles are kept to a minimum. […] This assay was performed on a fully automated linear track robotic platform (CRS F3 Robot System, Thermo Electron Corp., Ontario, Canada) utilizing several integrated peripherals for plate handling, liquid dispensing, and readout detection. […] The microplates are then placed at 37° C. for 48 hours to complete treatment of cells with compounds. Next, 5 ul of alamar blue was added using a liquid dispenser (Flexprop Precision Dispenser, Perkin Elmer, Mass., USA) and incubated for 48 hours at 37° C. The alamar blue prompt fluorescence was measured on Victor V (Victor^3 V, Perkin Elmer, Mass., USA) and output data files were loaded into ORIS (Oncology Research Informatics System, MSKCC, NY, USA), a screening data acquisition and analysis platform.
(§10) The dose response studies were done with the following standard procedure. First, the cells were counted and dispensed at 250 cells/well into 384-well microplates with compound. The cells were incubated for 48 hours at 37 C to complete treatment, and then alamar blue was added for an additional 48 hours. Finally, alamar blue reduction was measured and the data was loaded into ORIS, our data screening acquisition platform.

[2] = system: H1975; assay: Non Small Cell Lung Cancer proliferation assay (Alamar Blue reduction), H1975; conditions: primary screening, 10 μM compound in 1% DMSO (v/v); for inhibition at 10 µM: Homo sapiens, NCI-H1975
Experimental: as §1, §2, §3, §4, §5, §6, §7, §8, §9, §10

[3] = system: H2030; assay: Non Small Cell Lung Cancer proliferation assay (Alamar Blue reduction), H2030; conditions: primary screening, 10 μM compound in 1% DMSO (v/v); for inhibition at 10 µM: Homo sapiens, NCI-H2030
Experimental: as §1, §2, §3, §4, §5, §6, §7, §8, §9, §10

[4] = system: H1650; assay: Non Small Cell Lung Cancer proliferation assay (Alamar Blue reduction), H1650; conditions: primary screening, 10 μM compound in 1% DMSO (v/v); for inhibition at 10 µM: Homo sapiens, NCI-H1650
Experimental: as §1, §2, §3, §4, §5, §6, §7, §8, §9, §10

[5] = H3255, read-out: PRIMARY HTS [%] H3255 (percentage inhibition)
[6] = H1975, read-out: PRIMARY HTS [%] H1975 (percentage inhibition)
[7] = H2030, read-out: PRIMARY HTS [%] H2030 (percentage inhibition)
[8] = H1650, read-out: PRIMARY HTS [%] H1650 (percentage inhibition)
[9] = read-out: percentage inhibition H3255
[10] = read-out: percentage inhibition H1975
[11] = read-out: percentage inhibition H2030
[12] = read-out: percentage inhibition H1650

SMILES | inhibition at 10 µM [1, 5] [%] | inhibition at 10 µM [2, 6] [%] | inhibition at 10 µM [3, 7] [%] | inhibition at 10 µM [4, 8] [%] | inhibition at 10 µM [1, 9] [%] | inhibition at 10 µM [2, 10] [%] | inhibition at 10 µM [3, 11] [%] | inhibition at 10 µM [4, 12] [%] | other results
O=C(Nc1ccc(NC(=O)c2ccco2)cc1)c1ccc(-c2ccccc2)cc1 [compound 76739] | 5 | -9 | 3 | 13 | – | – | – | – | –
COc1cnn(-c2ccccc2)c(=O)c1N(C)C [compound 103971] | – | – | – | – | -1 | -10 | 1 | 5 | –
CN1CCN(Cc2ccc([N+](=O)[O-])o2)CC1 [compound 100652] | -3 | -2 | -6 | -12 | – | – | – | – | –
COc1cnn(-c2ccccc2)c(=O)c1SCc1ccc(Cl)c(Cl)c1 [compound 182729] | – | – | – | – | 1 | 23 | -14 | 10 | –
O=C(O)c1ccc(-n2ncc(Cl)c(Cl)c2=O)cc1 [compound 197940] | – | – | – | – | -37 | -6 | 2 | 11 | –
CC(=O)N(C(C)=O)c1c(Cl)cnn(-c2ccccc2)c1=O [compound 187116] | – | – | – | – | 27 | 90 | 4 | 31 | –
O=c1c(SCc2ccc(Cl)cc2Cl)c(SC2CCCCO2)cnn1-c1ccccc1 (centres unmarked) [compound 224771] | – | – | – | – | 30 | -21 | 3 | -12 | –
COc1ccc(-n2nc(C(=O)c3ccccc3)cc(-c3nc4ccccc4[nH]3)c2=N)cc1 [compound 193067] | – | – | – | – | -35 | 21 | 4 | -7 | –
N=c1c(-c2nc3ccccc3[nH]2)cc(C(=O)c2cccs2)nn1-c1ccccc1 [compound 186924] | – | – | – | – | 8 | 14 | 1 | 7 | –
CCOC(=O)COc1cnn(-c2ccccc2)c(=O)c1Cl [compound 225042] | – | – | – | – | 5 | 10 | 6 | -18 | –
Cc1ccc(C(=O)Nc2cc([N+](=O)[O-])ccc2C)o1 [compound 66776] | 2 | 2 | -3 | 13 | – | – | – | – | –
Cc1c(C(=O)NN)nn(-c2ccccc2)c(=O)c1C#N [compound 194841] | – | – | – | – | -35 | -15 | -9 | -1 | –
Cc1cccc(N2CCN(Cc3ccc([N+](=O)[O-])o3)CC2)c1C [compound 101070] | 1 | -18 | 5 | 2 | – | – | – | – | –
CCc1c(C(=O)OC)nn(-c2ccc(C)cc2)c(=O)c1C#N [compound 193326] | – | – | – | – | -49 | -1 | -9 | -2 | –
O=c1c(Cl)cc(Cl)nn1-c1ccccc1 [compound 196392] | – | – | – | – | 111 | 99 | -13 | 87 | –
O=[N+]([O-])c1ccc(CN2CCN(c3ccccc3)CC2)o1 [compound 100483] | 1 | -8 | -1 | -1 | – | – | – | – | –
O=C(COc1cnn(-c2ccccc2)c(=O)c1Cl)c1ccc(Cl)cc1 [compound 177215] | – | – | – | – | 13 | 25 | -9 | 6 | –
O=C(Nc1cccc(Cl)c1)c1ccco1 [compound 78107] | 6 | -14 | 4 | 14 | – | – | – | – | –

SMILES | inhibition at 10 µM [1, 5] [%] | inhibition at 10 µM [2, 6] [%] | inhibition at 10 µM [3, 7] [%] | inhibition at 10 µM [4, 8] [%] | inhibition at 10 µM [1, 9] [%] | inhibition at 10 µM [2, 10] [%] | inhibition at 10 µM [3, 11] [%] | inhibition at 10 µM [4, 12] [%] | other results
O=c1c(SCc2ccc(Cl)cc2)c(SC2CCCCO2)cnn1-c1ccccc1 (centres unmarked) [compound 195063] | – | – | – | – | -6 | 34 | -6 | 22 | –
O=c1c(SCc2ccccc2)cc(Cl)nn1-c1ccccc1 [compound 208702] | – | – | – | – | 0 | -16 | -15 | 3 | –
O=C(c1ccc([N+](=O)[O-])o1)N1CCOCC1 [compound 77953] | 0 | -1 | -6 | 12 | – | – | – | – | –
CCOC(=O)NCCOc1cnn(-c2ccc(Cl)cc2)c(=O)c1Cl [compound 199764] | – | – | – | – | 2 | -14 | -9 | -11 | –
COc1nn(-c2ccccc2)c(=O)c(Cl)c1Cl [compound 104332] | – | – | – | – | 82 | 99 | 87 | 51 | –
N#Cc1ccccc1-n1nc(C(=O)c2cccs2)cc(-c2nc3ccccc3[nH]2)c1=N [compound 186926] | – | – | – | – | – | – | – | – | percentage inhibition H3255 [1]: 52%; percentage inhibition H1975 [2]: 81%; percentage inhibition H2030 [3]: 2%; percentage inhibition H1650 [4]: 27%
Cc1ccc(C(=O)N2CCN(c3ccc(NC(=O)c4ccco4)cc3)CC2)cc1 [compound 95436] | -3 | -12 | 2 | 2 | – | – | – | – | –
Nc1ccc(NC(=O)c2ccco2)c(Cl)c1 [compound 82456] | 2 | -15 | -2 | 6 | – | – | – | – | –
CC(C)(C)NC(=O)c1ccc(NC(=O)c2ccco2)cc1 [compound 91753] | -1 | -22 | -5 | -3 | – | – | – | – | –
O=c1c(Cl)c(Cl)cnn1-c1ccc(Cl)c(C(F)(F)F)c1 [compound 103719] | – | – | – | – | 76 | 102 | 94 | 45 | –
CCOc1cnn(-c2ccccc2)c(=O)c1Cl [compound 104217] | – | – | – | – | -1 | -7 | 6 | -15 | –
O=c1c(SCc2ccccc2)c(SCc2ccccc2)cnn1-c1ccccc1 [compound 208693] | – | – | – | – | 0 | -7 | -11 | -6 | –
O=C(Nc1cccc([N+](=O)[O-])c1)c1ccco1 [compound 87246] | 5 | -3 | 9 | 8 | – | – | – | – | –
CCSc1cnn(-c2ccccc2)c(=O)c1SCC [compound 174406] | – | – | – | – | 8 | 3 | -9 | 18 | –
COc1ccc(-n2nc(C(=O)c3ccco3)cc(-c3nc4ccccc4[nH]3)c2=N)cc1 [compound 182721] | – | – | – | – | 4 | 9 | 11 | 8 | –
CN(C(=O)c1ccc([N+](=O)[O-])o1)c1ccccc1 [compound 104003] | 5 | 18 | 0 | -3 | – | – | – | – | –
CCOc1c(Cl)cnn(-c2ccccc2)c1=O [compound 104288] | – | – | – | – | 46 | 102 | 66 | -13 | –
